Measurements as given in patent US20240383852A1, “ANTI-VIRAL COMPOUNDS” (INFEX Therapeutics Limited, priority 2021, published 2024).
Counter-ions that a name gives are not always drawn. Like-named read-outs stand apart in the source and are kept apart here.

Experiments:
[1] = test system: human Hep G2 cells (ATCC HB-8065); assay: Cytotoxicity in Hep G2 cells (CellTiter-Glo); format: cell-based
SARS-CoV-2 PLpro = biological target: T1, SARS-CoV-2 PLpro (Severe acute respiratory syndrome coronavirus 2, UniProt P0DTD1); assay: biochemical
T1 construct: containing 60 nM papain-like protease

[2] = Hep G2 cells, 100 μM test article, 24-hour exposure
[3] = 60 nM papain-like protease, 50 μM Z-RLRGG-AMC, pH 7.5, 37° C., read-out: SARS-CoV-2 PLpro IC50

Row | Structure (SMILES) | % Cell Viability [1, 2] | IC50 (SARS-CoV-2 PLpro; [3]) | % Cell Viability ([1]; human, 24 h, 100 μM) | IC50 (SARS-CoV-2 PLpro)
1 | Cc1ccc(N2CCCNCC2)cc1C(=O)N[C@H](C)c1cccc2ccccc12 [Example 128, 5-(1,4-Diazepan-1-yl)-2-methyl-N-[(1R)-1-(1-naphthyl)ethyl]benzamide] | 1.1% | < 2 µM |  | 
2 | Cc1ccc(N2CC[C@@H](N3CCCCC3)C2)cc1C(=O)N[C@H](C)c1cccc2ccccc12 [Example 129, 2-Methyl-N-[(1R)-1-(1-naphthyl)ethyl]-5-[(3R)-3-(1-piperidyl)pyrrolidin-1-yl]benzamide] | 95.5% | < 5 µM |  | 
3 | C[C@@H](NC(=O)c1cc(N2CCN(C)CC2)ccc1Cl)c1cccc2ccccc12 [Example 130, 2-Chloro-5-(4-methylpiperazin-1-yl)-N-[(1R)-1-(1-naphthyl)ethyl]benzamide] | 1.0% | < 10 µM |  | 
4 | C[C@@H]1CN(c2ccc(Cl)c(C(=O)N[C@H](C)c3cccc4ccccc34)c2)C[C@H](C)N1 [Example 133, 2-Chloro-5-[(3S,5R)-3,5-dimethylpiperazin-1-yl]-N-[(1R)-1-(1-naphthyl)ethyl]benzamide] | 0.1% | < 5 µM |  | 
5 | C[C@@H](NC(=O)c1cc(N2CCNCC2)ccc1Cl)c1cccc2ccccc12 [Example 134, 2-Chloro-N-[(1R)-1-(1-naphthyl)ethyl]-5-piperazin-1-yl-benzamide] | 0.8% | < 2 µM |  | 
6 | Cc1ccc(-c2ccnc(N3CCNCC3)c2)cc1C(=O)N[C@H](C)c1cccc2ccccc12 [Example 140, 2-Methyl-N-[(1R)-1-(1-naphthyl)ethyl]-5-(2-piperazin-1-yl-4-pyridyl)benzamide] | 0.8% | < 10 µM |  | 
7 | C[C@@H](NC(=O)c1cc(C2=CCN(C)CC2)ccc1Cl)c1cccc2ccccc12 [Example 144, 2-Chloro-5-(1-methyl-3,6-dihydro-2H-pyridin-4-yl)-N-[(1R)-1-(1-naphthyl)ethyl]benzamide] |  |  | 1.6% | < 10 µM
8 | C[C@@H](NC(=O)c1cc(C2=CCNC2)ccc1Cl)c1cccc2ccccc12 [Example 146, 2-Chloro-5-(2,5-dihydro-1H-pyrrol-3-yl)-N-[(1R)-1-(1-naphthyl)ethyl]benzamide Hydrochloride Salt] | 0.2% | < 2 µM |  | 
9 | C[C@@H](NC(=O)c1cc(C2CCNC2)ccc1Cl)c1cccc2ccccc12 (stereo partly drawn) [Example 147, 2-chloro-N-[(1R)-1-(1-naphthyl)ethyl]-5-pyrrolidin-3-yl-benzamide] | 0.8% | < 5 µM |  | 
10 | Cc1ccc(C2=CCNCC2)cc1C(=O)N[C@H](C)c1cccc2ccccc12 [Example 154, 2-Methyl-N-[(1R)-1-(1-naphthyl)ethyl]-5-(1,2,3,6-tetrahydropyridin-4-yl)benzamide] |  |  | 2.1% | < 2 µM
11 | Cc1ccc(C2=CCNCC2)c(C)c1C(=O)N[C@H](C)c1cccc2ccccc12 [Example 155, 2,6-Dimethyl-N-[(1R)-1-(1-naphthyl)ethyl]-3-(1,2,3,6-tetrahydropyridin-4-yl)benzamide] |  |  | 0.6% | < 2 µM
12 | Cc1ccc(C2CCNCC2)cc1C(=O)N[C@H](C)c1cccc2ccccc12 [Example 156, 2-Methyl-N-[(1R)-1-(1-napthyl)ethyl]-5-(4-piperidyl)benzamide] | 0.6% | < 2 µM |  | 
13 | Cc1ccc(C2CCN(C)CC2)cc1C(=O)N[C@H](C)c1cccc2ccccc12 [Example 157, 2-Methyl-5-(1-methyl-4-piperidyl)-N-[(1R)-1-(1-naphthyl)ethyl]benzamide] | 1.5% | < 2 µM |  | 
14 | C[C@@H](NC(=O)c1cccc(N2CCNCC2)c1)c1cccc2ccccc12 [Example 158, N-[(1R)-1-(1-Naphthyl)ethyl]-3-piperazin-1-yl-benzamide Hydrochloride Salt] | 0.8% | < 5 µM |  | 
15 | CC(=O)N1CCN(c2cccc(C(=O)N[C@H](C)c3cccc4ccccc34)c2)CC1 [Example 159, 3-(4-Acetylpiperazin-1-yl)-N-[(1R)-1-(1-naphthyl)ethyl]benzamide] | 81.5% | > 100 µM |  | 
16 | COC(=O)CCN1CCN(c2cccc(C(=O)N[C@H](C)c3cccc4ccccc34)c2)CC1 [Example 160, Methyl 3-[4-[3-[[(1R)-1-(1-naphthyl)ethyl]carbamoyl]phenyl]piperazin-1-yl]propanoate] | 101.8% | < 100 µM |  | 
17 | C[C@@H](NC(=O)c1cccc(N2CCN(CCC(=O)O)CC2)c1)c1cccc2ccccc12 [Example 161, 3-[4-[3-[[(1R)-1-(1-Naphthyl)ethyl]carbamoyl]phenyl]piperazin-1-yl]propanoic Acid] | 97.9% | < 20 µM |  | 
18 | Cc1ccc(N2CCN(CCC(=O)O)CC2)cc1C(=O)N[C@H](C)c1cccc2ccccc12 [Example 162, 3-[4-[4-Methyl-3-[[(1R)-1-(1-naphthyl)ethyl]carbamoyl]phenyl]piperazin-1-yl]propanoic acid] | 104.9% | < 2 µM |  | 
19 | Cc1ccc(N2CCCN(CCC(=O)O)CC2)cc1C(=O)N[C@H](C)c1cccc2ccccc12 [Example 163, 3-[4-[4-Methyl-3-[[(1R)-1-(1-naphthyl)ethyl]carbamoyl]phenyl]-1,4-diazepan-1-yl]propanoic acid] | 122.4% | < 5 µM |  | 
20 | Cc1ccc(N2CCN(C)CC2)cc1C(=O)N[C@H](C)c1cccc(-c2ccc(N3CCN(CCC(=O)O)CC3)cc2)c1 [Example 165, 3-[4-[4-[3-[(1R)-1-[[2-Methyl-5-(4-methylpiperazin-1-yl)benzoyl]amino]ethyl]phenyl]phenyl]piperazin-1-yl]propanoic acid] | 132% | < 2 µM |  | 
21 | Cc1ccc(N2CCN(C)CC2)cc1C(=O)N[C@H](C)c1cccc(N2CCN(CCC(=O)O)CC2)c1 [Example 166, 3-[4-[3-[(1R)-1-[[2-Methyl-5-(4-methylpiperazin-1-yl)benzoyl]amino]ethyl]phenyl]piper-azin-1-yl]propanoic acid] | 100.9% | < 10 µM |  | 
22 | Cc1ccc(N2CCN(C)CC2)cc1C(=O)N[C@H](C)c1cccc(-c2cccc(N3CCN(CCC(=O)O)CC3)c2)c1 [Example 167, 3-[4-[3-[3-[(1R)-1-[[2-Methyl-5-(4-methylpiperazin-1-yl)benzoyl]amino]ethyl]phenyl]phe-nyl]piperazin-1-yl]propanoic acid] | 110.4% | < 2 µM |  | 
23 | Cc1ccc(N2CC3(CN(CCC(=O)O)C3)C2)cc1C(=O)N[C@H](C)c1cccc2ccccc12 [Example 168, 3-[2-[4-Methyl-3-[[(1R)-1-(1-naphthyl)ethyl]carbamoyl]phenyl]-2,6-diazaspiro[3.3]heptan-6-yl]propanoic acid] | 111.2% | < 5 µM |  | 
24 | Cc1ccc(N2CCN(CCC(=O)O)CC2)cc1C(=O)N[C@H](C)c1cccc(-c2cccc(CO)c2)c1 [Example 170, 3-[4-[3-[[(1R)-1-[3-[3-(Hydroxymethyl)phenyl]phenyl]ethyl]carbamoyl]-4-methyl-phenyl]piperazin-1-yl]propanoic Acid] | 107.9% | < 5 µM |  | 
25 | Cc1ccc(N2CCN(CCCC(=O)O)CC2)cc1C(=O)N[C@H](C)c1cccc2ccccc12 [Example 172, 4-[4-[4-Methyl-3-[[(1R)-1-(1-naphthyl)ethyl]carbamoyl]phenyl]piperazin-1-yl]butanoic Acid] | 104.6% | < 2 µM |  | 
